These are literature values, as cited in US20040147461A1, “Motilide compounds” (priority 2000, published 2004).

The conditions of data set [1]: statement in words.
Data set [2] addresses motilin receptor (Homo sapiens, UniProt O43193). The settings on record: statement in words.

Sequence of motilin receptor (O43193 whole entry, species assumed): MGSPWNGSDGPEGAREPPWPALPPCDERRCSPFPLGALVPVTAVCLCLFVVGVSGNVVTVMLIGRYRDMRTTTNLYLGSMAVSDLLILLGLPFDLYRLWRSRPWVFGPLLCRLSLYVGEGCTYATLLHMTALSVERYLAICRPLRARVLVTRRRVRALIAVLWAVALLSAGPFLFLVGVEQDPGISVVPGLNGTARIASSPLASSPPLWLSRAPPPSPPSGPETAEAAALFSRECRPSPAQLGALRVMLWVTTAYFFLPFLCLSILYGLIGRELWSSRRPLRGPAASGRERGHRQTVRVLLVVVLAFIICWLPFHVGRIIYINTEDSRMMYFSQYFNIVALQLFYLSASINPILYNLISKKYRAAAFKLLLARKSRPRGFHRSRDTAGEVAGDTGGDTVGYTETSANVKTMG

Turning to `CC[C@H]1OC(=O)[C@H](C)[C@@H](O[C@H]2C[C@@](C)(OC)[C@@H](O)[C@H](C)O2)[C@H](C)[C@@H](O[C@@H]2O[C@H](C)C[C@H](N(C)C)[C@H]2O)[C@@]2(C)CC(C)=C(O2)[C@H](C)[C@@H](O)[C@]1(C)O` [enol ether, 8,9-anhydroerythromycin A 6,9-hemiacetal], in data set [1], the antimicrobial activity entry is on record as “does not also posses antimicrobial activity”.

Take `CC[C@H]1OC(=O)[C@H](C)[C@@H](O[C@H]2C[C@@](C)(OC)[C@@H](O)[C@H](C)O2)[C@H](C)[C@@H](O[C@@H]2O[C@H](C)C[C@H](N(C)C)[C@H]2O)[C@](C)(O)C[C@@H](C)C(=O)[C@H](C)[C@@H](O)[C@]1(C)O` [erythromycin A]: in data set [2], the motilin agonist activity result is “motilin agonists”.
